Read-outs that look alike come from different tables or passages of the source.
Columns and labels:
A1 receptor = details: literature, qualitative; cited from earlier work
[1] = DMCM-induced seizures in vivo; details: read-out: DMCM-ind. seizures (ED50, mg/kg)
Text: (§1) The methods both for the above in vitro examination of the compounds and the method used for DMCM-induced seizures in vivo are summarized in the European Journal of Pharmacology, 1993, 224, 221-228.

adenosine A2 receptor = biological target: T1, adenosine A2 receptor (Rattus norvegicus, UniProt P30543); assay: in vitro binding to adenosine A2 receptor ([3H]-CGS 21680)
T1 construct: from tissue
T1 sequence (P30543 whole entry): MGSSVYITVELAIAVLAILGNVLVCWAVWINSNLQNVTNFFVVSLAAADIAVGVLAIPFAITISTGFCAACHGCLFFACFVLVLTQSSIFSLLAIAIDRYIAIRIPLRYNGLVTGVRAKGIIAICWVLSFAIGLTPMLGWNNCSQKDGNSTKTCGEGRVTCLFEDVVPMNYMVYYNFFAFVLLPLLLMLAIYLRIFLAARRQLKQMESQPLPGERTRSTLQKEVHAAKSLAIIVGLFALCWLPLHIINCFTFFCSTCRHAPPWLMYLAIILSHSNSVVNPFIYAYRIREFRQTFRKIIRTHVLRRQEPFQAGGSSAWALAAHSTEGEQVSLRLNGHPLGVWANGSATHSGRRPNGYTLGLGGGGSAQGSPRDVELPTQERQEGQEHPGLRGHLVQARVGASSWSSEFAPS
Text: (§2) Evaluation of in vitro binding to adenosine A1 and A2 receptors.
as §1

adenosine A1 receptor = biological target: T2, adenosine A1 receptor (Rattus norvegicus, UniProt P25099); assay: in vitro binding to adenosine A1 receptor ([3H]-R-PIA); details: for Ki: radioligand [3H]-R-PIA; for Ratio A2/A1: ratio of A2 to A1 receptor binding Ki
T2 construct: from tissue
T2 sequence (P25099 1-326): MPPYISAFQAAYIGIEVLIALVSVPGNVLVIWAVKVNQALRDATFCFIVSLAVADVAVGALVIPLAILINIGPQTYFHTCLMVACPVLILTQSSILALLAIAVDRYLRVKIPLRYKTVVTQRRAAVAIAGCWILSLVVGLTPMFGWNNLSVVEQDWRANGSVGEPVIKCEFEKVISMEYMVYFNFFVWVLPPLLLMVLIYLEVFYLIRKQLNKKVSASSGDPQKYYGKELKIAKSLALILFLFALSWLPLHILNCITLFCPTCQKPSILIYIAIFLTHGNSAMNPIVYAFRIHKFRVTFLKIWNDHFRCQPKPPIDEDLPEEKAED
Text: as §2, §1

[2] = ED50, DMCM-induced seizures in vivo
[3] = radioligand [3H]-CGS 21680, read-out: A2 Receptor Binding (Ki)

Structure (SMILES)	Ki (adenosine A1 receptor) [nM]	Ratio A2/A1 (adenosine A1 receptor)	Ki (adenosine A2 receptor; [3]) [nM]	selectivity for the A1 receptor over the A2 receptor (in words) (A1 receptor)	ED50 [1] [mg/kg]	Ki (adenosine A2 receptor) [nM]	ED50 [1, 2] [mg/kg]
OC[C@H]1O[C@@H](n2cnc3c(NC4CCCC4)nc(Cl)nc32)[C@H](O)[C@@H]1O [CCPA, 2-chloro-N-cyclopentyladenosine]	–	–	–	most selective for the A1 receptor over the A2 receptor	–	–	–
OC[C@H]1O[C@@H](n2cnc3c(NC4CCCC4)ncnc32)[C@H](O)[C@@H]1O [CPA, N-(cyclopentyl)adenosine, reference compound]	–	–	–	–	0.2	192	–
CN(C)Nc1nc(Cl)nc2c1ncn2[C@@H]1O[C@H](CCl)[C@@H](O)[C@H]1O [Example 11, 2,5'-Dichloro-5'-deoxy-N-(dimethylamino)adenosine]	11	600	6600	–	–	–	4.7
O[C@@H]1[C@H](O)[C@@H](CF)O[C@H]1n1cnc2c(NN3CCCCC3)nc(Cl)nc21 [Example 18, 2-Chloro-5'-deoxy-5'-fluoro-N-(1-piperidinyl)adenosine]	5.3	457	2420	–	–	–	1
C[C@H](Cc1ccccc1)Nc1ncnc2c1ncn2[C@@H]1O[C@H](CO)[C@@H](O)[C@H]1O [R-PIA, (R)-N-(1-phenyl-2-propyl)adenosine, reference compound]	–	–	–	–	0.5	–	–

Further lines, with some results ahead:

Ki (adenosine A1 receptor) [nM]	Ratio A2/A1 (adenosine A1 receptor)	Ki (adenosine A2 receptor; [3]) [nM]	Structure (SMILES)	selectivity for the A1 receptor over the A2 receptor (in words) (A1 receptor)	ED50 [1] [mg/kg]	Ki (adenosine A2 receptor) [nM]	ED50 [1, 2] [mg/kg]
6.4	428	2740	O[C@@H]1[C@H](O)[C@@H](CCl)O[C@H]1n1cnc2c(NN3CCCCC3)nc(Cl)nc21 [Example 1, 2,5'-Dichloro-5'-deoxy-N-(1-piperidinyl)adenosine]	–	–	–	0.4
74	63	4660	CONc1nc(Cl)nc2c1ncn2[C@@H]1O[C@H](CCl)[C@@H](O)[C@H]1O [Example 12, 2,5'-Dichloro-5'-deoxy-N-methoxyadenosine]	–	–	–	6.1

Reference: patent US5589467A, “2,5',N6-trisubstituted adenosine derivatives” (Novo Nordisk A/S, priority 1993, dated 1996)
